Data reported in patent US6794516B2, “Synthesis of clasto-lactacystin β-lactone and analogs thereof” (Millennium Pharmaceuticals, Inc., priority 1997, dated 2004).
“Also recorded” adds a separate entry of the source.

Tests used:
[1] = physchem; details: buffer, pH 7.8
Protocol: (§1) The half-lives (ti1/2) for hydrolysis of β-lactone analogs to the corresponding dihydroxy acids were measured at 37° C. at a concentration of 200 mM in 20 mM HEPES, 0.5 mM EDTA, pH 7.8. Absorbance was measured for at least five half-lives (approximately 1 hour) at 230 nm, the wavelength at which there is the greatest difference in extinction coefficients for the lactone and dihydroxy.

[2] = system: C2C12 cells; test: Inhibition of intracellular protein degradation in C2C12 cells; assay type: cell-based, mouse; details: for IC50: Mus musculus, C2C12 cells, 35S-methionine labelled, TCA soluble radioactivity
Protocol: C2C12 cells (a mouse myoblast line) were labeled for 48 hrs with ^35S-methionine. The cells were then washed and preincubated for 2 hrs in the same media supplemented with 2 mM unlabelled methionine. The media was removed and replaced with a fresh aliquot of the preincubation media containing 50% serum, and a concentration of the compound to be tested. The media was then removed and made up to 10% TCA and centrifuged. The TCA soluble radioactivity was counted. Inhibition of proteolysis was calculated as the percent decrease in TCA soluble radioactivity.

[3] = biological target: T1, PA28-activated 20S proteasome (Homo sapiens, UniProt P28074); test: Inactivation of the chymotrypsin-like activity of PA28-activated 20S proteasome (Suc-Leu-Leu-Val-Tyr-AMC); assay type: biochemical; details: for kinact/KI: rate of enzyme inactivation, chymotrypsin-like activity of PA28-activated 20S proteasome, 37° C., pH 8.0, read-out: Kobs/[I]
T1 construct: from tissue
Protocol: Purification of 20S proteasome and proteasome activator PA28 was performed as previously described (Dick et al., J. Biol. Chem. 271:7273 (1996)).
2 mL of assay buffer (20 mM HEPES, 0.5 mM EDTA, pH 8.0) and Suc-Leu-Leu-Val-Tyr-AMC in dimethyl sulfoxide were added to a 3 mL fluorescent cuvette, and the cuvette was placed in the jacketed cell holder of a Hitachi F-2000 fluorescence spectrophotometer. The temperature was maintained at 37° C. by a circulating water bath. 0.34 mg of PA28 were added and the reaction progress was monitored by the increase in fluorescence at 440 nm (λex=380 nm) that accompanies production of free AMC. […] After reaching a steady state of substrate hydrolysis, lactacystin was added to a final concentration of […], and the reaction was monitored for 1 h. The fluorescence (F) versus time (t) data were collected on a microcomputer using LAB CALC (Galactic) software. kinact values were estimated by a nonlinear least-squares fit of the data to the first order equation:
where C=Ft=0 and A=Ft=∞−Ft=0.

[4] = Lactone hydrolysis to the dihydroxy acid; details: for half-life at 200 mM: HEPES/EDTA buffer, pH 7.8
Protocol: as §1

[5] = system: Male Sprague Dawley rats; test: Middle cerebral artery (MCA) occlusion/reperfusion: infarct size and neurological score; assay type: in vivo, rat; details: for infarct volume: rat MCA occlusion
Protocol: Male Sprague Dawley rats (250-400 g) were anesthetized with haloethane and subjected to middle cerebral artery (MCA) occlusion using a nylon filament for 2 h. Subsequently, the filament was removed and reperfusion of the infarcted tissue occurred for 24 hours before the rat was sacrificed.
Immediately after the filament was withdrawn, the animals were evaluated using a neurological scoring system. Neurological scores were expressed on a scale from 0 to 10, with 0 representing no neurological deficit and 10 representing severe neurological deficit. After 24 hours and before sacrifice, animals were evaluated a second time using the same neurological scoring system.
Staining of coronal sections (2.0 mm×7-8) with triphenyltetrazolium chloride (TTC) taken throughout the brain were evaluated under blinded conditions using image analysis to determine infarct size.
Rats were given i.v. bolus injections (1.0 mL/kg) of either vehicle (50% propylene glycol/saline; n=8) or 7-n-propyl-clasto-lactacystin β-lactone (3b) (0.3 mg/kg; n=7) at 2 hours after the start of the occlusion. Two additional groups of rats were given i.v. bolus injections (1.0 mL/kg) of 3b at 0 minutes, 2 hours, and 6 hours after the start of the occlusion. One group (0.1 mg/kg×3; n=6) received 0.1 mg/kg at each of these times, while another group (0.3 mg/kg×3; n=7) received 0.3 mg/kg at each of the three timepoints.

Row | SMILES | IC50 [2] | kinact/KI [3] | half-life at 200 mM [4] | other results
1 | CC(C)[C@H](O)[C@@]12NC(=O)[C@H](C)[C@@H]1OC2=O [Compound 2, clasto-lactacystin β-lactone] | 700 to 1100 nM | 20000 M⁻¹ s⁻¹ | – | half-life at 200 mM [1]: 13 min
2 | CC[C@H]1C(=O)N[C@@]2([C@@H](O)C(C)C)C(=O)O[C@@H]12 [Compound 3a] | 320 nM | 39000 M⁻¹ s⁻¹ | 15.3 min | –
3 | CCC[C@H]1C(=O)N[C@@]2([C@@H](O)C(C)C)C(=O)O[C@@H]12 [Compound 3b, 7-n-propyl-clasto-lactacystin β-lactone] | 290 nM | 46500 M⁻¹ s⁻¹ | 15.3 min | neurological score ([5]; i.v. 0.1 mg/kg×3 dosage group): No significant improvement; neurological score ([5]; i.v. 0.3 mg/kg×3 dosage group): No significant improvement; infarct volume decreased by ([5]; rat MCA occlusion 2 h, reperfusion 24 h, single i.v. dose 0.3 mg/kg at 2 hours after start of occlusion): 50%; infarct volume ([5]; i.v. 0.1 mg/kg×3 (0 minutes, 2 hours, 6 hours)): not significantly decreased; infarct volume ([5]; i.v. 0.3 mg/kg×3 (0 minutes, 2 hours, 6 hours)): not significantly decreased; mean neurological score at 24 hours ([5]; scale 0 to 10 (10 = severe deficit), single i.v. 0.3 mg/kg dose, vehicle 8.7±0.6): 4±1; neurological improvement ([5]; single i.v. 0.3 mg/kg dose, versus vehicle at 24 hours): 60%
4 | CCCC[C@H]1C(=O)N[C@@]2([C@@H](O)C(C)C)C(=O)O[C@@H]12 [Compound 3c] | 330 nM | 38000 M⁻¹ s⁻¹ | 17 min | –
5 | CC(C)C[C@H]1C(=O)N[C@@]2([C@@H](O)C(C)C)C(=O)O[C@@H]12 [Compound 3d] | 510 nM | 17000 M⁻¹ s⁻¹ | 16.8 min | –
6 | CO[C@H]1C(=O)N[C@@]2([C@@H](O)C(C)C)C(=O)O[C@@H]12 [Compound 3f] | 86000 nM | 82200 M⁻¹ s⁻¹ | 3.7 min | relative potency in cell culture ([2]; compared to 2): less potent than 2; also recorded: much weaker activity; relative hydrolysis rate ([4]; compared to 2): more rapidly hydrolyzed; relative potency in the enzyme assay ([3]; compared to the other compounds of Table 1 / to 2): most potent
